Assay results taken from ChEMBL document CHEMBL1125260, “Binding of substituted and conformationally restricted derivatives of N-(3-phenyl-n-propyl)-1-phenyl-2-aminopropane at sigma-receptors” (J Med Chem, 1991).

Assays:
[1] = biological target: T1, Adrenergic receptor beta (Rattus norvegicus, UniProt P18090+P10608+P26255); assay: In vitro binding affinity at beta adrenergic receptor binding site receptors in rat brain membrane using [3H]dihydroalprenolol as radioligand; format: cell membranes
[2] = biological target: D(1A) dopamine receptor (Rattus norvegicus, UniProt P18901); assay: In vitro binding affinity at Dopamine receptor D1 using [3H]SCH-23390 as radioligand
[3] = biological target: D(2) dopamine receptor (Rattus norvegicus, UniProt P61169); assay: In vitro binding affinity at Dopamine receptor D2 in rat striata using [3H]domperidone as radioligand
[4] = biological target: Glutamate receptor ionotropic, kainate; assay: In vitro binding affinity at Ionotropic glutamate receptor ionotropic kainate in rat brain membrane using [3H]kainate as radioligand; format: cell membranes
[5] = biological target: Muscarinic acetylcholine receptor; assay: In vitro binding affinity at muscarinic binding site receptors in rat brain membrane using [3H]QNB as radioligand; format: cell membranes
[6] = biological target: T2, Glutamate receptor ionotropic, AMPA (Rattus norvegicus, UniProt P19490+P19491+P19492+P19493); assay: In vitro binding affinity at quisqualate binding site of quisqualate/AMPA glutamate receptors in rat brain membrane using [3H]- ]AMPA as radioligand; format: cell membranes
[7] = biological target: T1, Adrenergic receptor beta; assay: In vitro binding affinity at Beta adrenergic receptor in rat brain membrane using [3H]dihydroalprenolol as radioligand; format: cell membranes
[8] = biological target: Glutamate receptor ionotropic, kainate; assay: In vitro binding affinity at Ionotropic glutamate receptor kainate in rat brain membrane using [3H]kainate as radioligand; format: cell membranes
[9] = biological target: Muscarinic acetylcholine receptor; assay: In vitro binding affinity at Muscarinic acetylcholine receptor in rat brain membrane using [3H]QNB as radioligand; format: cell membranes
[10] = biological target: T2, Glutamate receptor ionotropic, AMPA; assay: In vitro binding affinity at quisqualate binding site of quisqualate/AMPA glutamate receptors in rat brain membrane using [3H]AMPA as radioligand; format: cell membranes

D(1A) dopamine receptor, sequence (P18901 whole entry): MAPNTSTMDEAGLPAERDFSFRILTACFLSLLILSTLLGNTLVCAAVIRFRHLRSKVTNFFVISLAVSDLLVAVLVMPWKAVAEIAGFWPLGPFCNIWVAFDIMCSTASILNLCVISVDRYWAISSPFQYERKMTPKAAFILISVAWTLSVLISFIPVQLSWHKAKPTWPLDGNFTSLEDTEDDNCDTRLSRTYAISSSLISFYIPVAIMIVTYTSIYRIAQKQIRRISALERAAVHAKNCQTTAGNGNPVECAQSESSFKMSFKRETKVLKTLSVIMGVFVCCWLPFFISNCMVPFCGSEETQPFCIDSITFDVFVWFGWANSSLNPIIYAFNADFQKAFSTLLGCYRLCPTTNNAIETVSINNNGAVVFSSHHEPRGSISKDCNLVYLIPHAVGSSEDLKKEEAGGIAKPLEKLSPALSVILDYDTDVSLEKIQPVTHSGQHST
D(2) dopamine receptor, sequence (P61169 whole entry): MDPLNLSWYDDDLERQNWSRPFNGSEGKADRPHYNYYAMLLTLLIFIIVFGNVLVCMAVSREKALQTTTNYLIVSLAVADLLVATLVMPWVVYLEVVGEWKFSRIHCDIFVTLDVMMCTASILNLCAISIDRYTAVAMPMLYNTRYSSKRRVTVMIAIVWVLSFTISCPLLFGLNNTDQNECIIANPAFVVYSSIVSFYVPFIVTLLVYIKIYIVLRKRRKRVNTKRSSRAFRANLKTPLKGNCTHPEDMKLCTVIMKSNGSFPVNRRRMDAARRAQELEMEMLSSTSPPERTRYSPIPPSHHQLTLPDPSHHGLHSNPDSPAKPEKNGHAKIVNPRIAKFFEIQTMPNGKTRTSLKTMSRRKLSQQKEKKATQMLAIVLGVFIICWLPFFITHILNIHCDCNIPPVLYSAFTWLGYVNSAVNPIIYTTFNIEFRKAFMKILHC

CC(Cc1ccc(I)cc1)NCCCc1ccccc1 (centres undefined)
IC50 [1]: 5.57 µM | IC50 [2]: > 10 µM | IC50 [3]: 3.8 µM | IC50 [4]: > 10 µM | IC50 [5]: > 10 µM | IC50 [6]: > 10 µM

c1ccc(CCCNC2CCc3ccccc3CC2)cc1
IC50 [7]: > 10 µM | IC50 [2]: > 10 µM | IC50 [3]: 5.8 µM | IC50 [8]: > 10 µM | IC50 [6]: > 10 µM | IC50 [9]: 9.5 µM

CC(Cc1ccc(Cl)c(Cl)c1)NCCCc1ccccc1 (centres undefined)
IC50 [7]: 1.24 µM | IC50 [2]: > 10 µM | IC50 [3]: 1.79 µM | IC50 [8]: > 10 µM | IC50 [6]: > 10 µM | IC50 [9]: 7.4 µM

COc1ccc(CC(C)NCCCc2ccccc2)cc1 (centres undefined)
IC50 [1]: 4.94 µM | IC50 [2]: > 10 µM | IC50 [10]: > 10 µM | IC50 [3]: 9.32 µM | IC50 [4]: > 10 µM | IC50 [5]: > 10 µM
